The values that follow come from article PMC7114212 (Antiviral Research, 2006).

Where two headings read alike, the source gives them in different places.

The subject of one data set is FIPV. In kind it is cell-based, feline infectious peritonitis virus.
The test system of another data set is CEM cells. The settings on record: cited from earlier work; for IC50: read-out: HIV-1 (CEM) IC50 (50% cytostatic concentration).
Another data set deals with FIPV strain 79-1146. Put plainly: microbe, parasite or virus in culture. To be noted: read-out: FIPV (CRFK) EC50. Type of data set: cell-based, feline infectious peritonitis virus.
The subject of data set [1] is Crandell-Reese feline kidney (CRFK) cells.
The test system of another data set is HIV-1 (IIIB). The settings on record: read-out: HIV-1 (CEM) EC50; cited from earlier work.
For data set [2] the following is noted: mouse, in vivo, cited from earlier work.

Broadly, the EC50 is the concentration at which the effect is half-maximal. Teicoplanin [compound 52]: the “delay of addition after FIPV infection that keeps full antiviral activity” value in the data set on FIPV was “markedly less delayed”. In the data set on CEM cells, the “HIV-1 (CEM) IC50 (50% cytostatic concentration)” value is given as “neither toxic” and the IC50 is above 500 µM. Besides, the “SARS-CoV (Vero) CC50” value with Vero cells is given as “neither toxic”. For the same molecule, in the data set with FIPV strain 79-1146, the concentration giving a half-maximal response (EC50) is above 80 µM. The “FIPV (CRFK) CC50” value in data set [1] is recorded as “neither toxic”.
In the case of Carboxyeremomycin [compound 14], the EC50 in the data set on FIPV strain 79-1146 was above 80 µM.
With “Ristosaminylaglycon of ristomycin [compound 51]”, in the data set on CEM cells, the IC50 is above 100 µM. In addition, the concentration for a half-maximal effect (EC50) with HIV-1 (IIIB) is above 50 µM; in the data set on FIPV strain 79-1146, above 80 µM.
As usually defined, the CC50 is the concentration that lowers cell viability or growth by half. On to “Vancomycin aglycon hexapeptide [compound 69]”, for which the EC50 in the data set on HIV-1 (IIIB) is at least 125 µM; in the data set on FIPV strain 79-1146, above 100 µM. For the same molecule, the cytotoxic concentration (CC50) (in the data set with Vero cells; in data set [1]) was above 100 µM in each case.
On to Eremomycin [compound 7], for which, in the data set on CEM cells, the “HIV-1 (CEM) IC50 (50% cytostatic concentration)” value is reported as “neither toxic” and the IC50 was above 500 µM. The concentration giving a half-maximal response (EC50) in the data set with HIV-1 (IIIB) was above 250 µM. Besides, the “SARS-CoV (Vero) CC50” value in the data set on Vero cells is “neither toxic”. The half-maximal effective concentration (EC50) with FIPV strain 79-1146 is above 100 µM. The “FIPV (CRFK) CC50” value in data set [1] is “neither toxic”.
In the case of Vancomycin aglycon [compound 65], the IC50 in the data set with CEM cells was above 500 µM. The EC50 was 65 µM with HIV-1 (IIIB) and above 80 µM in the data set with FIPV strain 79-1146. The CC50 (in the data set on Vero cells; in data set [1]) was above 80 µM throughout.
For orientation: Vss means the apparent volume that relates the amount in the body to the concentration in plasma or blood. What is called half-life is the time needed for the level to fall by half in the phase considered. Take “adamantyl-2 amide of eremomycin [AN0900]”: in data set [2] (iv), the Vss was 26.285 L/kg and the half-life was 3.08 h. For the same molecule, the tissue penetration result in data set [2] is “deep tissue penetration”.
Turning to Ristomycin [compound 50], in the data set with CEM cells, the “HIV-1 (CEM) IC50 (50% cytostatic concentration)” value is given as “neither toxic” and the IC50 is above 500 µM. For the same molecule, in the data set on HIV-1 (IIIB), the EC50 was above 250 µM. Besides, the “SARS-CoV (Vero) CC50” value in the data set with Vero cells is on record as “neither toxic”. Moreover, the concentration giving a half-maximal response (EC50) with FIPV strain 79-1146 was above 80 µM. In addition, the “FIPV (CRFK) CC50” value in data set [1] was “neither toxic”.
In the case of Eremomycin aglycon [compound 71], in the data set on CEM cells, the IC50 is above 500 µM. The EC50 was 50 µM in the data set with HIV-1 (IIIB) and above 80 µM in the data set with FIPV strain 79-1146. In addition, the CC50 (in the data set with Vero cells; in data set [1]) was above 80 µM throughout.
As to demannosyl-N-deacylA40926 [compound 57], in the data set on CEM cells, the “HIV-1 (CEM) IC50 (50% cytostatic concentration)” value is reported as “neither toxic”. Besides, in the data set on CEM cells, the IC50 was above 500 µM. The EC50 in the data set on HIV-1 (IIIB) was 115 ± 21 µM; in the data set on FIPV strain 79-1146, above 80 µM. In addition, the “SARS-CoV (Vero) CC50” value in the data set on Vero cells is “neither toxic”. In addition, the “FIPV (CRFK) CC50” value in data set [1] is given as “neither toxic”.
Turning to N-Deacyl-A40926 [compound 55], the “HIV-1 (CEM) IC50 (50% cytostatic concentration)” value in the data set with CEM cells was “neither toxic”. In the data set with CEM cells, the IC50 is above 500 µM. Also, the EC50 in the data set on HIV-1 (IIIB) was above 250 µM; in the data set with FIPV strain 79-1146, above 80 µM. Moreover, in the data set with Vero cells, the “SARS-CoV (Vero) CC50” value is recorded as “neither toxic”. For the same molecule, in data set [1], the “FIPV (CRFK) CC50” value is “neither toxic”.
With De-Cl-eremomycin aglycon [compound 89], the EC50 is above 125 µM with HIV-1 (IIIB) and above 100 µM with FIPV strain 79-1146. Also, the CC50 (in the data set on Vero cells; in data set [1]) was above 100 µM each time.
Regarding `CN[C@H](CC(C)C)C(=O)N[C@H]1C(=O)N[C@@H](CC(N)=O)C(=O)N[C@H]2C(=O)N[C@H]3C(=O)N[C@H](C(=O)N[C@H](C(=O)O)c4cc(O)cc(O)c4-c4cc3ccc4O)[C@H](O)c3ccc(c(Cl)c3)Oc3cc2cc(c3O[C@@H]2O[C@H](CO)[C@@H](O)[C@H](O)[C@H]2O[C@H]2C[C@](C)(N)[C@H](O)[C@H](C)O2)Oc2ccc(cc2Cl)[C@H]1O` [compound 1, Vancomycin], the “HIV-1 (CEM) IC50 (50% cytostatic concentration)” value in the data set with CEM cells was “neither toxic”. Also, the IC50 in the data set on CEM cells was above 500 µM. Also, the EC50 in the data set on HIV-1 (IIIB) was above 250 µM; with FIPV strain 79-1146 (Alphacoronavirus 1, CRFK, 96 h), above 80 µM; with FIPV strain 79-1146, above 100 µM. Moreover, in the data set with Vero cells, the “SARS-CoV (Vero) CC50” value is given as “neither toxic”. Besides, the “FIPV (CRFK) CC50” value in data set [1] is “neither toxic”.
Regarding “Eremomycin aglycon hexapeptide [compound 84]”, the IC50 with CEM cells is above 250 µM. Further, the figures for the EC50 in the data set with HIV-1 (IIIB) and in the data set with FIPV strain 79-1146 were 115 ± 21.2 µM and above 80 µM, respectively. The cytotoxic concentration (CC50) (in the data set on Vero cells; in data set [1]) was above 80 µM in each case.
